# Reference: ChEMBL document CHEMBL1126184, “Synthesis and in vitro evaluation of boronated uridine and glucose derivatives for boron neutron capture therapy” (1992)
# What was measured:
# [1] = tested on: Glioma; settings: Rattus norvegicus
# Description: Compound's ability to selectively deliver the requisite amounts of boron to tumors(amount of boron present in media in rat F98 Glioma cells at 0h after incubation with the compound.)
# [2] = tested on: Glioma; settings: Rattus norvegicus; remark: listed apart in the source
# Description: Compound's ability to selectively deliver the requisite amounts of boron to tumors (cellular uptake of boron by the rat F98 Glioma cells at 16h was determined.)
Substance,Boron in media at 0h [1],Cellular uptake of boron at 16h (ug of B (g of cells)-1) [2]
"1-[3-(1,2,3,4,5,6,7,8,9,10decabora-Cyclododec-11-en-11-ylmethoxy)-4-hydroxy-5-hydroxymethyl-tetrahydro-furan-2-yl]-1H-pyrimidine-2,4-dione",6.75 µg of B/ml,104
"1-[4-(1,2,3,4,5,6,7,8,9,10decabora-Cyclododec-11-en-11-ylmethoxy)-3-hydroxy-5-hydroxymethyl-tetrahydro-furan-2-yl]-1H-pyrimidine-2,4-dione",6.75 µg of B/ml,96.2
"1-[4-Hydroxy-5-hydroxymethyl-3-(1,2,3,4,5,6,7,8,9nonabora-cycloundec-10-en-10-ylmethoxy)-tetrahydro-furan-2-yl]-1H-pyrimidine-2,4-dione",6.75 µg of B/ml,1.5
"1-[5-(1,2,3,4,5,6,7,8,9,10decabora-Cyclododec-11-en-11-ylmethoxymethyl)-3,4-dihydroxy-tetrahydro-furan-2-yl]-1H-pyrimidine-2,4-dione",6.75 µg of B/ml,83.8
"4-(1,2,3,4,5,6,7,8,9,10decabora-Cyclododec-11-en-11-ylmethoxy)-6-hydroxymethyl-tetrahydro-pyran-2,3,5-triol",6.75 µg of B/ml,65.2
